Experimental findings from patent US9487519B2, “5,6-Dialkyl-7-aminotriazolopyrimidines, their preparation and their use for controlling harmful fungi, and compositions comprising these compounds” (BASF SE, priority 2004, dated 2016) are described below.

Assay [1] deals with Plasmopara viticola. Kind of assay: Activity against Peronospora of grapevines caused by Plasmopara viticola (Use Example 1). In kind it is in vivo. The conditions noted are these: 250 ppm, potted vines sprayed to runoff, inoculated next day; untreated plants 95% infected. The method, then: The active compounds were prepared as a stock solution comprising 25 mg of active compound which was made up to 10 ml using a mixture of acetone and/or DMSO and the emulsifier Uniperol® EL (wetting agent having emulsifying and dispersing agent based on ethoxylated alkylphenols) in a ratio by volume of solvent/emulsifier of 99/1. The mixture was then made up to 100 ml with water. This stock solution was, using the solvent/emulsifier/water mixture described, diluted to the active compound concentration stated below.
Leaves of potted vines were sprayed to runoff point with an aqueous suspension having the concentration of active compound stated below. The next day, the undersides of the leaves were inoculated with an aqueous sporangia suspension of Plasmopara viticola. The vines were then initially placed in a water-vapor-saturated chamber at 24° C. for 48 hours and then in a greenhouse at temperatures between 20° C. and 30° C. for 5 days. After this time, the plants were once more placed in a humid chamber for 16 hours to promote the eruption of sporangiophores. The extent of the development of the infection on the undersides of the leaves was then determined visually.

The subject of assay [2] is Phytophthora infestans. In kind it is in vivo. The conditions noted are these: 250 ppm, potted tomato plants sprayed to runoff, infected next day, assessed after 6 days; untreated plants 100% infected.

Regarding `CCCCCCCCc1c(CC)nc2ncnn2c1N` [I-2, 7-amino-5-ethyl-6-octyl[1,2,4]triazolo[1,5-a]pyrimidine], the “infection on the undersides of the leaves, determined visually” value in assay [1] is on record as “no infection”. Besides, the “infection (late blight), determined visually” value in assay [2] is “no infection”.
